Assay results from patent US20150175655A1 (priority 2012, published 2015).

Legend:
[1] = system: genotype 1a transient HCV replicon, NS3/4a protease inhibitor resistant variant R155K, in Huh-7-derived cells; experiment: Transient-transfected HCV replicon EC50, genotype 1a R155K; format: cell-based; settings: Hepatitis C virus, 72 h, read-out: EC50 1A R155K
[2] = system: genotype 4a stable HCV replicon (ED43 strain) in Huh-7-derived cells; experiment: Stable subgenomic HCV replicon EC50, genotype 4a (Renilla luciferase); format: cell-based; settings: Hepatitis C virus, 72 h, read-out: EC50 4A RLUC
Experimental: (§1) Antiviral potency (EC50) was determined in both stable subgenomic HCV replicon cell lines and transient-transfected HCV replicon cells. The term half maximal effective concentration (EC50) refers to the concentration of a drug which induces a response halfway between the baseline and maximum after the exposure time specified below.
(§2) Stable subgenomic HCV replicons for genotype 1a, 1 b, 2a, 3a, and 4a were established in Huh-7-derived cells as described by Lohmann et al (Lohmann V, Korner F, Koch J, et al Replication of subgenomic hepatitis C virus RNAs in a hepatoma cell line. Science 1999; 285:119-3). Each stable cell line contains a bicistronic HCV replicon that encodes a humanized Renilla luciferase (hRLuc) reporter gene fused to a selectable neomycin-resistance gene, followed by an EMCV IRES and the NS3-NS5B coding region of HCV. […] Luciferase activity was measured as a marker for intracellular HCV replication levels.
(§3) The genotype 1a stable replicon was derived from the H77 HCV strain and contained adaptive mutations P1496L and S2204I. The genotype 1 b stable replicon was derived from the Cont HCV strain and contained adaptive mutations E1202G, T1280I, and K1846T. […] The genotype 3a stable replicon was derived from the S52 HCV strain and contained adaptive mutations P1121 L, A1198T and S2210I (equivalent to S2204I in genotype 1). The genotype 4a stable replicon was derived from the ED43 HCV strain and contained adaptive mutations Q1691R and S2204I. All replicon cell lines were propagated in Huh-7-derived cells and maintained in Dulbecco's modified Eagle's Medium (DMEM) supplemented with 10% fetal bovine serum (FBS) and 0.5 mg/mL G418.
(§4) To perform EC50 assays, cells from each HCV replicon were dispensed into 384-well plates. Compounds were dissolved in DMSO at a concentration of 10 mM and diluted in DMSO using an automated pipetting instrument. Three-fold serially diluted compounds were directly added to the cells using an automated instrument. […] Seventy-two hours later, cells were lysed and Renilla luciferase activity were quantified as recommended by the manufacturer (Promega-Madison, Wis.). Non-linear regression was performed to calculate EC50 values.

[3] = system: genotype 1a stable HCV replicon (H77 strain) in Huh-7-derived cells; experiment: Stable subgenomic HCV replicon EC50, genotype 1a (Renilla luciferase); format: cell-based; settings: Hepatitis C virus, stable replicon genotype 1a, 72 h, read-out: EC50 1A RLUC
Experimental: as §1, §2, §3, §4

[4] = system: genotype 1b stable HCV replicon in Huh-7-derived cells; experiment: Stable subgenomic HCV replicon EC50, genotype 1b (Renilla luciferase); format: cell-based; settings: Hepatitis C virus, stable replicon genotype 1b, 72 h, read-out: EC50 1B RLUC
Experimental: as §1, §2, §3, §4

[5] = system: genotype 1a (H77) wild-type transient HCV replicon in Huh-7-derived cells; experiment: Transient-transfected HCV replicon EC50, genotype 1a wild type; format: cell-based; settings: Hepatitis C virus; transient-transfected replicon genotype 1a wild type, 72 h; read-out: EC50 1A WT
[6] = target: T1, NS3 genotype 1b protease (Hepatitis C virus genotype 1b, UniProt Q9WMX2, E1202G); experiment: Ki determination, NS3 protease genotype 1b (fluorogenic depsipeptide substrate); format: biochemical
T1 construct: Purified NS3 protease domain (amino acids 1-181) of the genotype 1b and 3a virus were generated as above; K3 hexahistidine tag (N); rTEV protease cleavage site (N); made in house; host or cells: E. coli BL21AI, pET28 vector p28-N6H-Tev-NS3(181)1b
In short: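 The His-tagged HCV NS3 protease domain (residues 1-181, genotype 1b con-1) was expressed in E. coli, and 50 pM enzyme with 20 μM NS4A peptide was used. Inhibitor (100 nM to 5 pM, 3-fold steps) was pre-incubated 1 h at room temperature in 50 mM HEPES, 40% glycerol, 0.05% Triton X-100, 10 mM DTT, 10% DMSO. The reaction was started with 4 μM fluorogenic substrate, and fluorescence (ex 340/em 490 nm) was read every 30 s between 90 and 120 min. Ki^app came from fitting rates with the Morrison equation.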

[7] = system: genotype 2a stable HCV replicon (JFH-1 strain) in Huh-7-derived cells; experiment: Stable subgenomic HCV replicon EC50, genotype 2a (Renilla luciferase); format: cell-based; settings: Hepatitis C virus, stable replicon genotype 2a, 72 h, read-out: EC50 2A RLUC
Experimental: as §1, §2, §3, §4

[8] = system: genotype 3a stable HCV replicon (S52 strain) in Huh-7-derived cells; experiment: Stable subgenomic HCV replicon EC50, genotype 3a (Renilla luciferase); format: cell-based; settings: Hepatitis C virus, 72 h, read-out: EC50 3A RLUC
Experimental: as §1, §2, §3, §4

[9] = system: genotype 1b (Con1) wild-type transient HCV replicon in Huh-7-derived cells; experiment: Transient-transfected HCV replicon EC50, genotype 1b wild type; format: cell-based; settings: Hepatitis C virus; transient-transfected replicon genotype 1b wild type, 72 h; read-out: EC50 1B WT
[10] = system: genotype 1b transient HCV replicon, NS3/4a protease inhibitor resistant variant D168A, in Huh-7-derived cells; experiment: Transient-transfected HCV replicon EC50, genotype 1b D168A; format: cell-based; settings: Hepatitis C virus, 72 h, read-out: EC50 1B D168A
[11] = system: genotype 3a transient HCV replicon (S52 strain) in Huh-7-derived cells; experiment: Transient-transfected HCV replicon EC50, genotype 3a wild type; format: cell-based; settings: Hepatitis C virus; transient-transfected replicon genotype 3a wild type, 72 h; read-out: EC50 3A WT

Row | SMILES | EC50 [1] | EC50 [2] | EC50 [3] | EC50 [4] | EC50 [5] | Ki [6] | EC50 [7] | EC50 [8] | EC50 [9] | EC50 [10] | EC50 [11]
1 | COc1ccc2nc3c(nc2c1)O[C@H]1CN(C(=O)[C@H](C(C)(C)C)NC(=O)O[C@@H]2C[C@H]2CCCCC3)[C@H](C(=O)N[C@]2(C(=O)NS(=O)(=O)C3(C)CC3)C[C@H]2C(F)F)[C@@H]1C1CC1 [Example 31, (1aR,5S,8S,9S,10R,22aR)-5-tert-butyl-9-cyclopropyl-N-[(1R,2R)-2-(difluoromethyl)-1-{[(1-methylcyclopropyl)sulfonyl]carbamoyl}cyclopropyl]-14-methoxy-3,6-dioxo-1,1a,3,4,5,6,9,10,18,19,20,21,22,22a-tetradecahydro-8H-7,10-methanocyclopropa[18,19][1,10,3,6]dioxadiazacyclononadecino[11,12-b]quinoxaline-8-carboxamide] | 154 nM | 20 nM | 40 nM | 18 nM | 27 nM | 0.13 nM | 63 nM | 2070 nM | 6.6 nM | 805 nM | 
2 | CC[C@@H]1[C@@H]2CN(C(=O)[C@H](C(C)(C)C)NC(=O)O[C@@H]3C[C@H]3CC/C=C/C(F)(F)c3nc4ccc(OC)cc4nc3O2)[C@@H]1C(=O)N[C@]1(C(=O)NS(=O)(=O)C2(C)CC2)C[C@H]1C(F)F [Example 89, (1aR,5S,8S,9S,10R,19E,22aR)-5-tert-butyl-N-[(1R,2R)-2-(difluoromethyl)-1-{[(1-methylcyclopropyl)sulfonyl]carbamoyl}cyclopropyl]-9-ethyl-18,18-difluoro-14-methoxy-3,6-dioxo-1,1a,3,4,5,6,9,10,18,21,22,22a-dodecahydro-8H-7,10-methanocyclopropa[18,19][1,10,3,6]dioxadiazacyclononadecino[11,12-b]quinoxaline-8-carboxamide] | 3.7 nM | 4.6 nM | 6 nM | 6.1 nM | 6 nM |  | 4.3 nM | 19 nM | 3.2 nM | 5.1 nM | 5.5 nM
3 | C=C[C@@H]1C[C@]1(NC(=O)[C@@H]1[C@H](CC)[C@@H]2CN1C(=O)[C@H](C(C)(C)C)NC(=O)O[C@@H]1C[C@H]1CCCCC(F)(F)c1nc3ccc(OC)cc3nc1O2)C(=O)NS(=O)(=O)C1CC1 [Example 92, (1aR,5S,8S,9S,10R,22aR)-5-tert-butyl-N-{(1R,2S)-1-[(cyclopropylsulfonyl)carbamoyl]-2-ethenylcyclopropyl}-9-ethyl-18,18-difluoro-14-methoxy-3,6-dioxo-1,1a,3,4,5,6,9,10,18,19,20,21,22,22a-tetradecahydro-8H-7,10-methanocyclopropa[18,19][1,10,3,6]dioxadiazacyclononadecino[11,12-b]quinoxaline-8-carboxamide] | 3 nM |  | 3.3 nM | 3.2 nM | 3 nM |  | 4.6 nM |  | 1.7 nM |  | 8 nM
